Molecular target: T1, Bombyx mori EcR (VP16 fusion, CVBE switch construct) (Bombyx mori, UniProt P49881)
T1 sequence (P49881 86-606): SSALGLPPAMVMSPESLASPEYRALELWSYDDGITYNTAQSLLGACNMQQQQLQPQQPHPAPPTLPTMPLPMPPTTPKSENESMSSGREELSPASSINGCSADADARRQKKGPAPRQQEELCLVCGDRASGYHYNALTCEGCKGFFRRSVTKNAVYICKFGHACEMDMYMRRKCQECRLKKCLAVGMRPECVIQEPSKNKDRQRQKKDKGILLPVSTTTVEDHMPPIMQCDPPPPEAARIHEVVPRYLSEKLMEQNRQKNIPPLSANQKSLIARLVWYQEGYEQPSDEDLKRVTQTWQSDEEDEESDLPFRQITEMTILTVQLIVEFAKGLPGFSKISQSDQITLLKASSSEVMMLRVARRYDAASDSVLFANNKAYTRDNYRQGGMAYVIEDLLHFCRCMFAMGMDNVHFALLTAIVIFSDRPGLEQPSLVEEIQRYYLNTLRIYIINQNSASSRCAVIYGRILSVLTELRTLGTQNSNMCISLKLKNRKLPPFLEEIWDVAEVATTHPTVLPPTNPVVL
T1 sequence (P19793 1-462 partner): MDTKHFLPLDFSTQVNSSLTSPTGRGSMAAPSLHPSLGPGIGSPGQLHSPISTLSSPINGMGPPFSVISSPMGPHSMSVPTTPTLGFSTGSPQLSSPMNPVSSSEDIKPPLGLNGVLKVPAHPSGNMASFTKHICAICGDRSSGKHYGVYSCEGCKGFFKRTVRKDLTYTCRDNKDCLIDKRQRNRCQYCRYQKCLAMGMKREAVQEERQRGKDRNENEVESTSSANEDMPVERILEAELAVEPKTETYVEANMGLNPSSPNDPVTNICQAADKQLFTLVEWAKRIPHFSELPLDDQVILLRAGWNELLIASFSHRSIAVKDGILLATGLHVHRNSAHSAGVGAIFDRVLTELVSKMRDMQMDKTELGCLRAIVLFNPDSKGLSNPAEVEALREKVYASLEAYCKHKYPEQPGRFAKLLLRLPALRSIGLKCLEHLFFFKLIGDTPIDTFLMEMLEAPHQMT
Assay: Z3 Assay (HEK-293 cells with CVBE and 6XEcRE LacZ, β-galactosidase reporter)
Details: for Fold Induction, Z3 Assay, 3.3 uM: 3.3 uM ligand; for Fold Induction, Z3 Assay, 3.3 uM / Fold Induction, Z3 Assay, 33 uM: ligand treated / DMSO treated cells; for Fold Induction, Z3 Assay, 3.3 uM / Fold Induction, Z3 Assay, 33 uM / EC50: average of two wells; for Fold Induction, Z3 Assay, 33 uM: 33 uM ligand; for Z3 assay Rel Max FI: maximum fold induction at any concentration relative to that of GS-E ligand; for Z3 assay Rel Max FI / EC50: HEK-293 Z3 cells; for EC50: read-out: Z3 assay EC50, β-galactosidase reporter

| Structure (SMILES) | Fold Induction, Z3 Assay, 3.3 uM | Fold Induction, Z3 Assay, 33 uM | Z3 assay Rel Max FI | EC50 |
| --- | --- | --- | --- | --- |
| COc1ccc(C(=O)NN(C(=O)c2ccc(F)cc2Cl)C(C)(C)C)cc1 [RG-101057] | 632 | 930 | 0.697 | 4470 nM |
| CC(=O)c1cccc(C(=O)NN(C(=O)c2cc(C)cc(C)c2)C(C)(C)C)c1C [RG-100814] | 410 | 1279 |  | 1150 nM |
| COc1cccc(C(=O)NN(C(=O)c2cc(Cl)cc(Br)c2)C(C)(C)C)c1C [RG-101408] | 780 | 398 | 1.118 | 148 nM |
| CC(C)(C)N(NC(=O)c1ccc2c(c1)OCO2)C(=O)c1ccc(F)cc1Cl [RG-101048] |  | 283 |  | 19100 nM |
| COc1ccccc1C(=O)N(NC(=O)c1ccc2c(c1C)OCOC2)C(C)(C)C [RG-100216] |  | 398 |  | 1780 nM |
| CCc1cccc(C(=O)NN(C(=O)c2cc(C)cc(C)c2)C(C)(C)C)c1C [RG-101691] | 654 | 1089 | 1.068 | 174 nM |
| COc1cccc(C(=O)NN(C(=O)c2ccc(Cl)cc2F)C(C)(C)C)c1C [RG-100929] |  | 490 |  | 631 nM |
| CCc1c(C(=O)NN(C(=O)c2cccc(C)c2)C(C)(C)C)ccc2c1OCCO2 [RG-101036] | 767 | 404 | 1.049 | 54 nM |
| COc1cccc(C(=O)NN(C(=O)c2cc(C)cc(Br)c2)C(C)(C)C)c1C [RG-101353] | 530 | 439 | 1.078 | 107 nM |
| COc1cc(C(=O)NN(C(=O)c2cc(C)cc(C)c2)C(C)(C)C)ccc1C [RG-101585] |  | 330 |  | 4900 nM |
| COc1cc(C)ccc1C(=O)N(NC(=O)c1cccc(OC)c1C)C(C)(C)C [RG-100769] | 1096 | 542 | 1.109 | 219 nM |
| Cc1cc(C)cc(C(=O)N(NC(=O)c2ccc3c(c2)COCO3)C(C)(C)C)c1 [RG-101016] |  | 394 |  | 2000 nM |
| CCc1ccc(C(=O)NN(C(=O)c2cc(C)cc(C)c2)C(C)(C)C)cc1Cl [RG-101864] | 796 | 494 | 1.075 | 245 nM |
| Cc1cc(C)cc(C(=O)N(NC(=O)c2ccc3c(c2Br)OCCO3)C(C)(C)C)c1 [RG-101340] | 866 | 432 | 1.126 | 234 nM |
| COCc1c(OC)cccc1C(=O)NN(C(=O)c1cc(C)cc(C)c1)C(C)(C)C [RG-115117] | 7 |  | 0.36 | 3930 nM |
| Cc1cc(C)cc(C(=O)N(NC(=O)c2cc3c(cc2C)OCO3)C(C)(C)C)c1 [RG-101088] |  | 302 |  | 4070 nM |
| CCc1ccc(C(=O)NN(C(=O)c2cc(C)c(C)c(Cl)c2)C(C)(C)C)cc1 [RG-101863] | 832 | 374 | 0.953 | 257 nM |
| Cc1cc(C)cc(C(=O)N(NC(=O)c2cc3c(cc2Cl)OCO3)C(C)(C)C)c1 [RG-101171] |  | 268 |  | 3240 nM |

| Structure (SMILES) | Fold Induction, Z3 Assay, 3.3 uM | Fold Induction, Z3 Assay, 33 uM | Z3 assay Rel Max FI | EC50 |
| --- | --- | --- | --- | --- |
| CCc1c(OC)cccc1C(=O)NN(C(=O)c1cc(OC)cc(OC)c1)C(C)(C)C [RG-100778] |  | 365 | 1.000 | 513 nM |
| CCc1c(C(=O)NN(C(=O)c2cc(C)cc(C)c2)C(C)(C)C)ccc2c1OC(C)O2 (stereo not shown) [RG-101659] | 954 | 876 |  | 214 nM |
| CCc1ccc(C(=O)NN(C(=O)c2ccccc2[N+](=O)[O-])C(C)(C)C)cc1 [RG-101013] | 1039 | 846 | 0.720 | 1480 nM |
| Cc1cc(C)cc(C(=O)N(NC(=O)c2cccc(OC(F)(F)F)c2C)C(C)(C)C)c1 [RG-101692] | 435 | 860 | 0.975 | 309 nM |
| CC(C)(C)N(NC(=O)c1c(F)cccc1F)C(=O)c1cc(Cl)cc(Cl)c1 [RG-100801] |  | 153 |  | 891 nM |
| COc1cccc(C(=O)NN(C(=O)c2cc(C)ccc2Cl)C(C)(C)C)c1Cl [RG-101248] |  | 375 |  | 1440 nM |
| CCc1ccc(C(=O)NN(C(=O)c2cc(C)cc(C)c2)C(C)C(C)(C)C)cc1 (stereo not shown) [RG-103451] | 67 | 118 | 1.054 | 83 nM |
| COc1cc(C(=O)N(NC(=O)c2cccc(OC)c2C)C(C)(C)C)ccc1C [RG-100768] | 1246 | 425 | 1.129 | 214 nM |
| CCc1ccc(C(=O)NN(C(=O)c2ccccc2CC)C(C)(C)C)cc1 [RG-102592] | 746 | 574 | 0.699 | 3890 nM |
| COc1cccc(C(=O)NN(C(=O)c2cccnc2Cl)C(C)(C)C)c1C [RG-100127] |  | 245 |  | 4680 nM |
| Cc1cc(C)cc(C(=O)N(NC(=O)c2ccc3c(c2)OC(C)O3)C(C)(C)C)c1 (stereo not shown) [RG-101511] | 947 | 487 | 1.122 | 468 nM |
| CCc1c(OC)cccc1C(=O)NN(C(=O)c1ccc(Cl)cc1OC)C(C)(C)C [RG-101218] | 886 | 398 | 0.998 | 316 nM |
| CCc1ccc(C(=O)NN(C(=O)c2cc(C)cc(Cl)c2)C(C)(C)C)cc1 [RG-101774] | 631 | 429 | 0.943 | 155 nM |
| C=Cc1c(OC)cccc1C(=O)NN(C(=O)c1cc(C)cc(C)c1)C(C)(C)C [RG-102021] | 417 |  | 0.920 | 513 nM |
| Cc1cc(C)cc(C(=O)N(NC(=O)c2ccc3c(c2)CCCC3)C(C)(C)C)c1 [RG-101887] | 1004 | 334 | 0.930 | 257 nM |
| Cc1cc(C)cc(C(=O)N(NC(=O)c2ccc(CC#N)cc2)C(C)(C)C)c1 [RG-100875] | 1006 | 1081 | 0.818 | 2040 nM |
| COc1cc(Cl)ccc1C(=O)N(NC(=O)c1cccc(OC)c1C)C(C)(C)C [RG-100848] | 885 | 26 | 0.996 | 240 nM |

Reference: patent US9102648B1, “Bioavailable diacylhydrazine ligands for modulating the expression of exogenous genes via an ecdysone receptor complex” (Intrexon Corporation, priority 2003, dated 2015)
